Data from US20060148908A1, “Supressant of toxicity induced by cancer chemotherapeutic agent and composition of cancer chemotherapeutic agent containing the same” (priority 2003, published 2006).
Entries after “also recorded” stand apart in the source; their conditions may differ.

Tests used:
ICR mice [1] = assay: Kidney and spleen weight relative to body weight in cisplatin-treated mice; assay type: in vivo; details: for specific gravity of kidney: oral pretreatment for 4 days before cisplatin injection, versus cisplatin only
Protocol: Cisplatin was intraperitoneally injected in mice. After some time passed, body weights of the mice were checked and induction of toxicity was confirmed. Blood was gotten from the heart of etherized mouse, and biochemical markers related to the induction of hepatotoxicity and nephrotoxicity were evaluated, and the kidney and spleen were separated and weighed for comparison.
Changes of specific gravity of kidney were also measured to evaluate suppressing effects of xanthorrhizol on nephrotoxicity induced by cisplatin.
(§1) The kidney and spleen were separated and weighed, respectively.

ICR mice [2] = assay: Serum biochemical parameters (GPT, GOT, BUN, creatinine) in cisplatin-treated mice; assay type: in vivo
Protocol: as §1
Blood samples obtained from heart were kept at room temperature for 2 h, centrifuged at 3000 rpm for 10 minutes to obtain sera, and stored at low temperature for analyzing proteins. GPT (Glutamate-Pyruvate Transaminase), GOT (Glutamate-Oxaloacetate Transaminase), blood urea nitrogen (BUN), and creatinine from the serum were measured.
The principle is following: α-ketoglutaric acid+alanine→glutamate+pyruvate. Pyruvate formed by GPT enzyme in said reaction is reacted with 2,4-dinitrophenylhydrazine and the intensity of color formed by the resulting reaction is related to enzymatic activity. The absorbance was determined at 505 nm. The reagents for determining GPT and GOT were purchased from Sigma chemical Co. (St. Louis, U.S.A.). Because hemolyzed serum contains a high level of GOT and GPT compared to normal serum, only unhemolyzed serum should be used as much as possible. The separated serum samples were stored at 4° C. and used within 5 days because the activity of GPT and GOT might decrease after 5 days at low temperature.
1 ml alanine-α-KG substrate was added to test tube and was pre-warmed at 37° C. for 2-3 minutes. 0.2 ml serum samples was added to each tube and incubated at 37° C. for 30 minutes in water bath. After that, 1 ml 2,4-dinitrophenylhydrazine was added and incubated at room temperature for 20 minutes. 10 ml 0.4N NaOH solution was added to each tube and was mixed well. After that, the GPT absorbance of each tube was read comparing with distilled water. In case of GOT determination, 1 ml aspartate-α-KG substrate was pre-warmed at 37° C. for 2-3 minutes, and 0.2 ml serum samples were added to each tube and incubated at 37° C. for 60 minutes, and the absorbance was read.
Through a kit for assaying blood urea nitrogen, Ammonia (NH3) formed by hydrolysis of urea was measured by the absorbance at 570 nm.
0.5 ml urease solution was added to test tube and mixed with 10 μl serum sample, and incubated in water bath at 37° C. for 5-10 minutes. 1 ml phenol nitroprusside solution and 1 ml alkaline hypochlorite solution were added to the tube and mixed gentlely, and 5 ml distilled water was added. After that, the absorbance of the reaction was measured comparing with distilled water as a control. The reagents for determining urea nitrogen were purchased from Sigma chemical Co. (St. Louis, U.S.A.) and standard calibration curve was used.
Standard calibration curve was used.
3 ml alkaline picrate solution and 0.3 ml serum sample were mixed well at 37° C. for 20 minutes and the absorbance (A1) was measured. Distilled water was used for a negative control. 0.1 ml acid solution (mixture of sulfuric acid and acetic acid) was added to each tube and incubated in water bath at 37° C. for 5 minutes. After that, the absorbance (A2) was read with distilled water as a negative control. Absorbance of the sample for determining the content of creatinine is absorbance (A1) minus absorbance (A2) according to standard calibration curve. The reagents for determining creatinine were purchased from Sigma chemical Co. (St. Louis, U.S.A.)

AP-1 = system: AP-1
Protocol: (§2) The density of band was measured by RFLPscan software.
as §1
(§3) EMSA (electrophoretic mobility shift assay) was performed to evaluate the xanthorrhizol's effects on NF-κB and AP-1. […] After that, powdered liver tissues were homogenized in 500 μl of cool hypotonic buffer [10 mM HEPES (pH 7.8), 10 mM KCl, 1.5 mM MgCl2, 0.5 mM DIT, 0.2 mM PMSF]. To the homogenates was added 125 μl of 10% NP-40 solution, and the mixture was then centrifuged at 12,000×g for 1 min. Pellets were washed once with 100 μl of the above buffer and 12.5 μl of 10% NP-40, centrifuged, resuspended in 50 μl of 20 mM cool HEPES buffer (pH 7.8) containing 420 mM NaCl, 1.5 mM MgCl2, 0.2 mM EDTA, 0.5 mM DTT, 0.2 mM PMSF, and 20% glycerol, and centrifuged at 12000×g for 5 min at 4° C. The supernatant containing nuclear proteins was collected and assayed protein concentration and stored at −70° C. […] The binding reaction was carried out in 25 μl of the mixture containing 5 μl of incubation buffer [10 mM Tris-HCl (pH 7.5), 100 mM NaCl, 1 mM DTT, 1 mM EDTA, 4% (v/v) glycerol, and 0.1 mg/ml sonicated salmon sperm DNA], 10 μg of nuclear extracts, and 100,000 cpm of the labeled probe. After 50 min of incubation at room temperature, the samples and comparative samples mixed with 3 μl of loading buffer (250 mM Tris-HCl (pH7.5), 0.2% bromophenol blue, 40% glycerol) were electrophoresed through a 6% non-denaturing polyacrylamide gel at 150 V for 2 hrs. Finally, the gel was dried and exposed to X-ray film.

NF-κB = details: for binding activity of NF-κB induced by cisplatin: liver, oral pretreatment before cisplatin
Protocol: as §2, §1, §3

COX-2 = assay: Semiquantitative RT-PCR of liver, COX-2 mRNA expression; assay type: in vivo, mice; details: for cisplatin-induced COX-2 mRNA expression: pretreatment 200 mg/kg before cisplatin
Protocol: (§4) The mRNA expression levels of NF-κB-dependent genes, COX-2 and iNOS, were evaluated by semiquantitative RT-PCR using specific primer sets. β-actin and GAPDH were used as control.
as §1

iNOS = assay: Semiquantitative RT-PCR of liver, iNOS mRNA expression; assay type: in vivo, mice; details: for induction of iNOS mRNA expression by cisplatin: pretreatment before cisplatin
Protocol: as §4, §1

S100A9 = assay: DDRT-PCR and semiquantitative RT-PCR of liver, S100A9 mRNA expression; assay type: in vivo, mice
ClpX = assay: DDRT-PCR and semiquantitative RT-PCR of liver, ClpX mRNA expression; assay type: in vivo, mice
Kin = details: mouse, in vivo
Protocol: After that, powdered liver tissues were homogenized using TRIzol™ reagent (Life technologies, Austria). The homogenized samples were incubated for 5 min at room temperature to permit the complete dissociation of nucleoprotein complexes. After the addition of 0.2 volume of chloroform, samples were shaken vigorously for 15 seconds, incubated for 2-3 min, and centrifuged at 12000×g for 15 min at 4° C. Total RNA in the upper aqueous phase was precipitated by mixing with an equal volume of isopropanol. The mixtures were incubated for 10 min at 4° C. and centrifuged at 12000×g for 10 min at 4° C. Total RNA pellet was washed with 75% ethanol, dried, and dissolved in RNase free water. To prevent the contamination with chromosomal DNA, total RNA samples were incubated with 10 units of DNase I (GenHunter Corp., Nashville, USA) at 37° C. for 30 min, and then DNA-free RNA was isolated using TRIzol reagent. The concentration and purity of total RNA and DNase-I-treated total RNA were calculated with absorbance at 260 and 280 nm.
DDRT-PCR (differential display reverse transciption-polymerase chain reaction) was performed using the RNAimage kit (GenHunter Corp., Nashville, USA). […]

rat uterine = details: Ponce-Monter et al. 1999; cited from earlier work
Streptococcus mutans = details: Hwang 2000; cited from earlier work
[3] = cisplatin 45 mg/kg i.p. alone (corn oil orally 4 days), 16 h after injection
[4] = cisplatin 45 mg/kg i.p. alone, 16 h after injection
[5] = administration of cisplatin alone
[6] = 200 mg/kg per day orally 4 days, then cisplatin 45 mg/kg i.p., 16 h
[7] = liver, oral pretreatment before cisplatin
[8] = 100 mg/kg per day orally 4 days, then cisplatin 45 mg/kg i.p., 16 h
[9] = 200 mg/kg per day orally 4 days, then cisplatin 45 mg/kg i.p., 16 h, listed as xanthorrhizol

Protocol for CP: Each example group consisted of 10 ICR mice (5 weeks, male). […] Only the corn oil was dosed orally as a negative control. […] Mice were weighed 16 h after the injection, killed under ether anesthesia and blood and liver samples were collected. The kidney and spleen were separated and weighed, respectively.
After that, powdered liver tissues were homogenized using TRIzol™ reagent (Life technologies, Austria). The homogenized samples were incubated for 5 min at room temperature to permit the complete dissociation of nucleoprotein complexes. After the addition of 0.2 volume of chloroform, samples were shaken vigorously for 15 seconds, incubated for 2-3 min, and centrifuged at 12000×g for 15 min at 4° C. Total RNA in the upper aqueous phase was precipitated by mixing with an equal volume of isopropanol. The mixtures were incubated for 10 min at 4° C. and centrifuged at 12000×g for 10 min at 4° C. […] The concentration and purity of total RNA and DNase-I-treated total RNA were calculated with absorbance at 260 and 280 nm. […]
Semiquantitative RT-PCR was performed to confirm the results from DDRT-PCR. To set the most suitable PCR amplification conditions, primers for interesting gene were determined by an on-line primer design program (Rozen and Skaletsky, 2000). […]

## N.N.[Cl][Pt][Cl] [Cisplatin, cis-diamminedichloroplatinum [II], reference compound]
ICR mice [1]; [3]
  K.W/B.W * 1000% (kidney weight/body weight): 19.2 ± 1.6
  S.W/B.W * 1000% (spleen weight/body weight): 2.1 ± 0.4
ICR mice [2]; [4]
  BUN (blood urea nitrogen): 144.4 ± 20.6 mg/dL
  Creatinine: 2.8 ± 0.7 mg/dL
  GOT: 517.1 ± 99.1 U/liter
  GPT: 185.8 ± 86.3 U/liter
AP-1; mouse, in vivo
  DNA-binding activity of AP-1: decreased
NF-κB; mouse, in vivo
  DNA-binding activity of NF-κB: increased
COX-2; [5]
  COX-2 mRNA expression: highly induced
iNOS; [5]
  iNOS mRNA expression: highly induced
S100A9; cisplatin alone
  S100A9 mRNA expression: upregulated
ClpX; cisplatin alone
  ClpX mRNA expression: downregulated
Kin
  Kin mRNA expression: upregulated
CP; mouse, in vivo
  CP mRNA expression: downregulated

## COc1cc(/C=C/C(=O)CC(=O)/C=C/c2ccc(O)c(OC)c2)ccc1O [Curcumin, curcumin, reference compound]
ICR mice [1]; [6]
  K.W/B.W * 1000% (kidney weight/body weight): 17.2 ± 1.7
  S.W/B.W * 1000% (spleen weight/body weight): 2.0 ± 0.1
ICR mice [1]
  specific gravity of kidney: decreased specific gravity of kidney at the level similar to that of the control group
ICR mice [2]; [6]
  BUN (blood urea nitrogen): 138.6 ± 46.2 mg/dL
  Creatinine: 2.2 ± 1.4 mg/dL
  GOT: 381.6 ± 144.7 U/liter
  GPT: 158.4 ± 84.3 U/liter
AP-1; [7]
  suppressed binding activity of AP-1 (by cisplatin): did not change
NF-κB
  binding activity of NF-κB induced by cisplatin: suppressed
COX-2
  cisplatin-induced COX-2 mRNA expression: returned the cisplatin-induced COX-2 mRNA expression to initial level
iNOS
  induction of iNOS mRNA expression by cisplatin: not suppressed
CP; liver, pretreatment before cisplatin
  CP mRNA expression level changed by cisplatin: did not show that effect

## CC(C)=CCC[C@@H](C)c1ccc(C)c(O)c1 [Xanthorrhizol, xanthorrhizol]
ICR mice [1]; [8]
  K.W/B.W * 1000% (kidney weight/body weight): 17.5 ± 2.9
  S.W/B.W * 1000% (spleen weight/body weight): 2.1 ± 0.4
ICR mice [1]; [6]
  K.W/B.W * 1000% (kidney weight/body weight): 14.6 ± 0.9
  S.W/B.W * 1000% (spleen weight/body weight): 2.0 ± 0.3
ICR mice [1]
  specific gravity of kidney: decreased specific gravity of kidney at the level similar to that of the control group
ICR mice [2]; [8]
  BUN (blood urea nitrogen): 145.2 ± 23.5 mg/dL
  Creatinine: 2.0 ± 1.1 mg/dL
  GOT: 296.5 ± 74.5 U/liter
  GPT: 134.2 ± 58.5 U/liter
ICR mice [2]; [6]
  BUN (blood urea nitrogen): 50.9 ± 16.7 mg/dL
  Creatinine: 0.8 ± 0.5 mg/dL
  GOT: 201.4 ± 50.3 U/liter
  GPT: 106.0 ± 28.3 U/liter
ICR mice [2]; [9]
  BUN (blood urea nitrogen): significantly decreased
  Creatinine: significantly decreased
  GPT: significantly reduced
AP-1; [7]
  recovery of the binding activity of AP-1 suppressed by cisplatin: about 50%
NF-κB
  binding activity of NF-κB induced by cisplatin: suppressed
COX-2
  cisplatin-induced COX-2 mRNA expression: returned the cisplatin-induced COX-2 mRNA expression to initial level
iNOS
  induction of iNOS mRNA expression by cisplatin: strongly suppressed
S100A9; pretreatment before cisplatin
  S100A9 mRNA expression level changed by cisplatin: reversed
ClpX; pretreatment before cisplatin
  ClpX mRNA expression level changed by cisplatin: maintained the ClpX mRNA expression in the same level as without administrating with cisplatin; also recorded: reversed
Rat uterine
  tonic contraction of rat uterine: dose-dependently limits tonic contraction
Streptococcus mutans
  antibacterial effect against oral bacteria such as Streptococcus mutans: antibacterial effect
